Results as given in patent publication EP4512396A1, “TARGETED COVALENT INHIBITORS FOR CARBONIC ANHYDRASES” (Vilnius University, priority 2023, dated 2025).
pKd: −log10 of the molar value.

What was measured:
CAIX = assay: stopped-flow CO2 hydration assay before and after dialysis (irreversible enzyme inactivation); type: biochemical, human; settings: for catalytic activity of CAIX after 32 hours of dialysis: […] CAIX incubated 2 h with 15 µM AV19-37 or 100 µM AV19-36, dialyzed in Tris buffer pH 7
CAIII [1] = target: T1, CAIII (Homo sapiens, UniProt P07451); assay: fluorescent thermal shift assay (FTSA); type: binding
T1 sequence (P07451 whole entry): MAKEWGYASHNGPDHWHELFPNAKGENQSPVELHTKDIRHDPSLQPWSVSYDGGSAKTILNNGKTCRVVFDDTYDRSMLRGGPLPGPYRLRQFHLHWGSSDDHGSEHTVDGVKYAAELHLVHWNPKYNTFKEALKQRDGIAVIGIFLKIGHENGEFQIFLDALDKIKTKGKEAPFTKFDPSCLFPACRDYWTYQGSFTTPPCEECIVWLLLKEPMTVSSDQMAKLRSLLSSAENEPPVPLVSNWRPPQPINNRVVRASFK

CA VB = CA VB (Homo sapiens, UniProt Q9Y2D0); assay: fluorescent thermal shift assay (FTSA); type: binding; settings: FTSA at 37 °C and pH 7.0, read-out: Kd_app
Sequence of CA VB (Q9Y2D0 34-317): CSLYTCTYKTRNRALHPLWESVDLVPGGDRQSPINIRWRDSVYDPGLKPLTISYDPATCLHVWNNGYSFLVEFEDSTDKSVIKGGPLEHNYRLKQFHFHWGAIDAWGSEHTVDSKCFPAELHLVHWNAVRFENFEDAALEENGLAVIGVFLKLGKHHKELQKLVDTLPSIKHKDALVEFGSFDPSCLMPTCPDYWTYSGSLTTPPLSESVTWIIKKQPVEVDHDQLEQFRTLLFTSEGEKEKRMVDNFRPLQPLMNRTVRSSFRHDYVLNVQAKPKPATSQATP

CAVI = CAVI (Homo sapiens, UniProt P23280); assay: fluorescent thermal shift assay (FTSA); type: binding; settings: FTSA at 37 °C and pH 7.0, read-out: Kd_app
Sequence of CAVI (P23280 21-290 limits assumed): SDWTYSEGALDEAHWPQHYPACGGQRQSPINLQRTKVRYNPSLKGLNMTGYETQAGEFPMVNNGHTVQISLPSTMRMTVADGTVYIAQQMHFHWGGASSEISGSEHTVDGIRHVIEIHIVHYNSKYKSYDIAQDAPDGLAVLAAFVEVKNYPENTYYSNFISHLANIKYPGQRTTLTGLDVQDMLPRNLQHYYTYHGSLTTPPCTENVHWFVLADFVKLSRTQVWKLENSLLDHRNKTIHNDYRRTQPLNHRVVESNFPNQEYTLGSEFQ

CAVII = CAVII (Homo sapiens, UniProt P43166); assay: fluorescent thermal shift assay (FTSA); type: binding; settings: FTSA at 37 °C and pH 7.0, read-out: Kd_app
Sequence of CAVII (P43166 whole entry): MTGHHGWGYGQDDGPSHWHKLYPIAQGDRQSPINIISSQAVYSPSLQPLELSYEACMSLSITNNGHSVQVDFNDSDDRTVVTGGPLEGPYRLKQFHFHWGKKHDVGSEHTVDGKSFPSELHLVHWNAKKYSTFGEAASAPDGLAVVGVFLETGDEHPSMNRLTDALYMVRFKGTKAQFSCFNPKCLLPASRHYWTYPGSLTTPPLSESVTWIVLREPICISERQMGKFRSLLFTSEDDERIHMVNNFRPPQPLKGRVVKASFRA

CAXII = CAXII (Homo sapiens, UniProt O43570); assay: fluorescent thermal shift assay (FTSA); type: binding; settings: FTSA at 37 °C and pH 7.0, read-out: Kd_app
Sequence of CAXII (O43570 25-354): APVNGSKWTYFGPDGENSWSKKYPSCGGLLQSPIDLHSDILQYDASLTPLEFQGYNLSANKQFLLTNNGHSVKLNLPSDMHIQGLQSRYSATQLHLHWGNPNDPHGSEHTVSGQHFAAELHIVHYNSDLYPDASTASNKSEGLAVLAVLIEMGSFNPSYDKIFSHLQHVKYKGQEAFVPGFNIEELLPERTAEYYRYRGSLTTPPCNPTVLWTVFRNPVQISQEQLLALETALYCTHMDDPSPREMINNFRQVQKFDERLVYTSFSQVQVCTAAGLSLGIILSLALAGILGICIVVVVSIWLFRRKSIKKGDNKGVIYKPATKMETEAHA

CAXIII = CAXIII (Homo sapiens, UniProt Q8N1Q1); assay: fluorescent thermal shift assay (FTSA); type: binding; settings: FTSA at 37 °C and pH 7.0, read-out: Kd_app
Sequence of CAXIII (Q8N1Q1 whole entry): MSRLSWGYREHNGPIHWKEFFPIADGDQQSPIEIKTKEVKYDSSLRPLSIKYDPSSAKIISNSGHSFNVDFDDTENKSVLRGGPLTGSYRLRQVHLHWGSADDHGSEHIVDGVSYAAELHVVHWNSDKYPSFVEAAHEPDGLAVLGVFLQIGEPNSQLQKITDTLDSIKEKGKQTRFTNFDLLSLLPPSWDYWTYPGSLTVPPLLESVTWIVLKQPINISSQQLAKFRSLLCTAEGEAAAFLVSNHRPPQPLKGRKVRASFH

CA XIV = CA XIV (Homo sapiens, UniProt Q9ULX7); assay: fluorescent thermal shift assay (FTSA); type: binding; settings: FTSA at 37 °C and pH 7.0, read-out: Kd_app
Sequence of CA XIV (Q9ULX7 16-337): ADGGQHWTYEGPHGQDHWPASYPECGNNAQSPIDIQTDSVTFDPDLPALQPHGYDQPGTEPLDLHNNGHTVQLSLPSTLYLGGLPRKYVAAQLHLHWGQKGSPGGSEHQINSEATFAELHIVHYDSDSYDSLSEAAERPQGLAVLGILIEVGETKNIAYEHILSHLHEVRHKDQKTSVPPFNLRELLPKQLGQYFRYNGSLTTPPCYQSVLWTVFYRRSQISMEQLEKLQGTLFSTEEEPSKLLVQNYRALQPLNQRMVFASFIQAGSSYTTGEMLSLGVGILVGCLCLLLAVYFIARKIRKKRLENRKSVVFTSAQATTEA

CA VA = CA VA (Homo sapiens, UniProt P35218); settings: pH 7
Sequence of CA VA (P35218 39-305): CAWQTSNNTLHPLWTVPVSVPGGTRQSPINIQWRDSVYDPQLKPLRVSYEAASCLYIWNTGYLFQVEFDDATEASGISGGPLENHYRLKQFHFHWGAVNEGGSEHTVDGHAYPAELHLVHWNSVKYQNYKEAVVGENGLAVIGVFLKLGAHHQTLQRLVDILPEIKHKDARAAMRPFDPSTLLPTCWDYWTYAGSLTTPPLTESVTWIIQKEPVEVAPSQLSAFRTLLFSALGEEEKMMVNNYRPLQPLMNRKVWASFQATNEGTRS

CA IV = CA IV (Homo sapiens, UniProt P22748); assay: biochemical
Sequence of CA IV (P22748 19-284): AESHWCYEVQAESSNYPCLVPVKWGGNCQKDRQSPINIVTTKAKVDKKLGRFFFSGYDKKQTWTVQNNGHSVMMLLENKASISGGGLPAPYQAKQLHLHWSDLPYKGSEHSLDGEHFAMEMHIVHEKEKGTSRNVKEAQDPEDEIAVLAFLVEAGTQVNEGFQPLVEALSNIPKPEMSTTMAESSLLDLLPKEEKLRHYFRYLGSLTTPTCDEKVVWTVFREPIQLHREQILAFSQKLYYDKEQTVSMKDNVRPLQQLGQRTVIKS

CAIII [2] = target: T1, CAIII; assay: Q-TOF mass spectrometry of covalent binding; settings: CAIII in the presence of ligand

Row | Compound | catalytic activity of CAIX after 32 hours of dialysis (CAIX) | pKd (CAIII [1]) | pKd (CA VB) | pKd (CAVI) | pKd (CAVII) | pKd (CAXII) | pKd (CAXIII) | pKd (CA XIV) | pKd (CA VA) | pKd (CA IV) | catalytic activity of CAIX after 2 hours of incubation with compound (CAIX; […] CAIX, 15 µM AV19-37, CO2 hydration, 25 °C, pH 7.5) | covalent modification by MS (CAIII [2])
1 | CC(=O)OCCSc1c(F)c(F)c(S(N)(=O)=O)c(F)c1F [AV19-36, 2-((2,3,5,6-tetrafluoro-4-sulfamoylphenyl)thio)ethyl acetate] | partially restored its catalytic activity |  |  |  |  |  |  |  |  |  |  | 
2 | NS(=O)(=O)c1c(F)c(F)c(S(=O)(=O)CCOC(=O)Cc2ccccc2)c(F)c1F [AV21-25, 2-((2,3,5,6-tetrafluoro-4-sulfamoylphenyl)sulfonyl)ethyl 2-phenylacetate] |  | 4.74 | 10.77 | 9.44 | 9.08 | 10.14 | 10.92 | 9.55 | 8.60 | 7.35 |  | 
3 | CC(=O)OCCS(=O)(=O)c1c(F)c(F)c(S(N)(=O)=O)c(F)c1NC1CCCCCCC1 [AV19-37, 2-((2-(cyclooctylamino)-3,5,6-trifluoro-4-sulfamoylphenyl)sulfonyl)ethyl acetate] | not restored |  |  |  |  |  |  |  |  |  | lost its catalytic activity | did not show a covalent modification
